Test [1] has as its target T1, human ANO6 (Homo sapiens, UniProt Q4KMQ2).
T1 construct: expressed in transfected cells
T1 sequence (Q4KMQ2 1-931 isoform Q4KMQ2-2): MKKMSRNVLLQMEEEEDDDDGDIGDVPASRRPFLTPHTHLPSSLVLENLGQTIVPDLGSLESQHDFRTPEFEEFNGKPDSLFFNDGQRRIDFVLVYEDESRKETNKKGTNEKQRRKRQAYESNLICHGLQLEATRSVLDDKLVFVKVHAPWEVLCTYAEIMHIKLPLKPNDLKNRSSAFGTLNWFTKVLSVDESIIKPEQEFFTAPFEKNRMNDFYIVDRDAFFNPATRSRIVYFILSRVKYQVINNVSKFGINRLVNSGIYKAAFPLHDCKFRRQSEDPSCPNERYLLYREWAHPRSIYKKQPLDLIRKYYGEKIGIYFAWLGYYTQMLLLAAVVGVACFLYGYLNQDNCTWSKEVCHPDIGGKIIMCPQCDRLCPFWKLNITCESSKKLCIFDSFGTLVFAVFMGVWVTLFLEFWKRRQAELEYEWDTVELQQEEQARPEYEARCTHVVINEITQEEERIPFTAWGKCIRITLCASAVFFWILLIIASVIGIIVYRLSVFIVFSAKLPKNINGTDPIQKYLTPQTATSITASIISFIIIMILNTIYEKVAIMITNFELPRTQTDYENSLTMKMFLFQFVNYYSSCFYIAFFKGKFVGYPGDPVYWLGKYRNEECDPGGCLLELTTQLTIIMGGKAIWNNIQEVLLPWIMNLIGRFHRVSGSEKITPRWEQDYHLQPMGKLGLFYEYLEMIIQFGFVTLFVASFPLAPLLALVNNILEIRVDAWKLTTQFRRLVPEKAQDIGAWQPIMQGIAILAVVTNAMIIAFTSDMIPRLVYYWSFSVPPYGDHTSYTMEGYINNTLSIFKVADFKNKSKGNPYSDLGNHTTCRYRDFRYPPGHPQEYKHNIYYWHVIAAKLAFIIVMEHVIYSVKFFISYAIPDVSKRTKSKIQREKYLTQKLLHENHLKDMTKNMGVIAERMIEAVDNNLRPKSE
Kind of test: YFP quenching assay (ANO6 ion channel activity). In kind it is cell-based. The note with it: 10 μM ionomycin; for inhibition at 1 µM: test compound 1 μM, read-out: Inhibition Level 1 μM; for inhibition at 30 µM: test compound 30 μM, read-out: Inhibition Level 30 μM. In short, it runs like this: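 FRT cells stably expressing human ANO6 and YFP-H148Q/I152L/F46L, preincubated 10 min at 40° C with compounds (1% DMSO) in PBS. Quench read every 0.4 s after injecting 140 mM SCN- with 10 μM ionomycin; % inhibition from the 3.6–7.6 s fluorescence difference, normalised to no-ionomycin (100%) and ionomycin-only (0%) wells, duplicate or triplicate.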

The target of test [2] is T1, human ANO6. Kind of test: LACT C2 assay (phosphatidylserine scramblase function assay). In kind it is cell-based. The note with it: FRT cells expressing human ANO6, 10 μM ionomycin; for inhibition at 0.1 µM: test compound 100 nM, read-out: Inhibition Level 100 nM; for inhibition at 1 µM: test compound 1 μM, read-out: Inhibition Level 1 μM. The gist of the method:
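Inhibition was normalised between ionomycin-only (0%) and untreated (100%) wells, with triplicates averaged. Readout was background-corrected Lact-C2-GFP (500 nM) fluorescence from imaged cells. The cells were FRT cells stably expressing human ANO6, given compound at 1% DMSO for 10 min before a 10 min 10 μM ionomycin challenge.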

Some results are limits rather than exact numbers.

`O=C(NCC1CCCC1)c1cccc(Nc2ccc(-c3ccccc3)nn2)c1` [Compound 33, N-(cyclopentylmethyl)-3-[(6-phenylpyridazin-3-yl)amino]benzamide]: on human ANO6 [1], the inhibition at 1 µM is not below 60% and the inhibition at 30 µM is not below 60%. Besides, on human ANO6 [2], the inhibition at 0.1 µM was less than 30% and the inhibition at 1 µM was not below 60%.
Consider `O=C(Nc1ccc(N2CCOCC2)cc1)c1cccc(Nc2ncc(-c3cccc(F)c3)cn2)c1` [Compound A84], for which the inhibition at 1 µM on human ANO6 [1] is not below 60%. For the same compound, at human ANO6 [2], the inhibition at 0.1 µM was less than 30% and the inhibition at 1 µM was in the range of 30 to 60%.
In the case of `O=C(NCC1CC1)c1cccc(Nc2ccc(-c3ccccc3)nn2)c1` [Compound 32, N-(cyclopropylmethyl)-3-[(6-phenylpyridazin-3-yl)amino]benzamide], at human ANO6 [1], the inhibition at 1 µM is not below 60% and the inhibition at 30 µM was not below 60%. At human ANO6 [2], the inhibition at 1 µM is less than 30%.
With `Cc1ccc(CNC(=O)c2cccc(Nc3ccc(-c4ccccc4)nn3)c2)o1` [Compound A8], at human ANO6 [1], the inhibition at 1 µM is not below 60% and the inhibition at 30 µM is not below 60%. Also, on human ANO6 [2], the inhibition at 0.1 µM is less than 30% and the inhibition at 1 µM was less than 30%.
Take `O=C(NCCc1ccccc1)c1cccc(Nc2ccc(-c3ccc(F)cc3)nn2)c1` [Compound A4]: at human ANO6 [1], the inhibition at 1 µM was not below 60% and the inhibition at 30 µM was not below 60%. Also, on human ANO6 [2], the inhibition at 0.1 µM is less than 30% and the inhibition at 1 µM was less than 30%.
For the compound `O=C(NCc1ccsc1)c1cccc(Nc2ccc(-c3ccccc3)nn2)c1` [Compound 44, 3-[(6-phenylpyridazin-3-yl)amino]-N-[(thiophen-3-yl)methyl]benzamide], the results for the inhibition at 1 µM at human ANO6 [1] and on human ANO6 [2] were not below 60% and less than 30%, respectively.
In the same order, the values of `Cc1ccc(CNC(=O)c2cccc(Nc3ccc(C4CCCCC4)nn3)c2)o1` [Compound 63, 3-[(6-cyclohexylpyridazin-3-yl)amino]-N-[(5-methylfuran-2-yl)methyl]benzamide] are 30 to 60% and less than 30%.
In the case of `O=C(NCc1ccccc1)c1cccc(Nc2ccc(-c3ccc(F)cc3)nn2)c1` [Compound A16], at human ANO6 [1], the inhibition at 1 µM fell in the range of 30 to 60% and the inhibition at 30 µM was not below 60%. On human ANO6 [2], the inhibition at 0.1 µM is less than 30% and the inhibition at 1 µM was less than 30%.
Take `Cc1ccc(C(C)NC(=O)c2cccc(Nc3ccc(-c4ccccc4)nn3)c2)cc1` (stereo not drawn) [Compound A57]: on human ANO6 [1], the inhibition at 1 µM is not below 60% and the inhibition at 30 µM is not below 60%. Besides, on human ANO6 [2], the inhibition at 0.1 µM was less than 30% and the inhibition at 1 µM is less than 30%.
In the case of `O=C(NCc1ccoc1)c1cccc(Nc2ccc(-c3ccccc3)nn2)c1` [Compound 45, N-[(furan-3-yl)methyl]-3-[(6-phenylpyridazin-3-yl)amino]benzamide], the values for the inhibition at 1 µM on human ANO6 [1] and on human ANO6 [2] were not below 60% and less than 30%, respectively.
For `O=C(NCCc1ccc(Cl)cc1)c1cccc(Nc2ccc(-c3ccccc3)nn2)c1` [Compound A45], at human ANO6 [1], the inhibition at 1 µM was not below 60% and the inhibition at 30 µM is not below 60%. Further, on human ANO6 [2], the inhibition at 0.1 µM is 30 to 60% and the inhibition at 1 µM is not below 60%.
For `Cc1ccc(CNC(=O)c2cccc(Nc3ccc(-c4ccc(F)cc4)nn3)c2)cc1` [Compound A22], at human ANO6 [1], the inhibition at 1 µM is not below 60% and the inhibition at 30 µM is not below 60%. For the same compound, on human ANO6 [2], the inhibition at 0.1 µM was less than 30% and the inhibition at 1 µM was less than 30%.
In the case of `CSc1ccc(CNC(=O)c2cccc(Nc3ccc(-c4ccccc4)nn3)c2)cc1` [Compound A44], at human ANO6 [1], the inhibition at 1 µM lay in the range of 30 to 60% and the inhibition at 30 µM was not below 60%. Further, at human ANO6 [2], the inhibition at 0.1 µM was less than 30% and the inhibition at 1 µM lay in the range of 30 to 60%.
As to `Cc1ccccc1CNC(=O)c1cccc(Nc2ccc(-c3ccccc3)nn2)c1` [Compound A48], on human ANO6 [1], the inhibition at 1 µM is not below 60% and the inhibition at 30 µM was not below 60%. In addition, on human ANO6 [2], the inhibition at 0.1 µM was less than 30% and the inhibition at 1 µM is 30 to 60%.
As for `O=C(NCc1ccco1)c1cccc(Nc2ccc(-c3ccccc3)nn2)c1` [Compound 46, N-[(furan-2-yl)methyl]-3-[(6-phenylpyridazin-3-yl)amino]benzamide], the inhibition at 1 µM on human ANO6 [1] and on human ANO6 [2] was 30 to 60% each time.
With `Cc1ccc(CNC(=O)c2cccc(Nc3ccc(-c4ccoc4)nn3)c2)o1` [Compound 7, 3-{[6-(furan-3-yl)pyridazin-3-yl]amino}-N-[(5-methylfuran-2-yl)methyl]benzamide], on human ANO6 [1], the inhibition at 1 µM was not below 60% and the inhibition at 30 µM is not below 60%. Further, on human ANO6 [2], the inhibition at 0.1 µM is less than 30% and the inhibition at 1 µM was not below 60%.
On to `O=C(NC1CCN(Cc2ccccc2)CC1)c1cccc(Nc2ccc(-c3ccccc3)nn2)c1` [Compound A73], for which, at human ANO6 [1], the inhibition at 1 µM is not below 60% and the inhibition at 30 µM was not below 60%. Besides, at human ANO6 [2], the inhibition at 0.1 µM was less than 30% and the inhibition at 1 µM is 30 to 60%.
`O=C(NCc1ccc(Br)cc1)c1cccc(Nc2ccc(-c3ccc(F)cc3)nn2)c1` [Compound A26]: on human ANO6 [1], the inhibition at 1 µM was in the range of 30 to 60% and the inhibition at 30 µM was not below 60%. On human ANO6 [2], the inhibition at 0.1 µM was less than 30% and the inhibition at 1 µM is less than 30%.
`CCC(CC)NC(=O)c1cccc(Nc2ccc(-c3ccccc3)nn2)c1` [Compound 66, N-(pentan-3-yl)-3-[(6-phenylpyridazin-3-yl)amino]benzamide]: the results for the inhibition at 1 µM at human ANO6 [1] and on human ANO6 [2] were 30 to 60% and less than 30%, respectively.
With `Cc1ccc(CNC(=O)c2cccc(Nc3ncc(-c4cccs4)cn3)c2)o1` [Compound 110, N-[(5-methylfuran-2-yl)methyl]-3-{[5-(thiophen-2-yl)pyrimidin-2-yl]amino}benzamide], the inhibition at 1 µM at human ANO6 [1] and at human ANO6 [2] was 30 to 60% in each case.
With `O=C(NCc1ccc2c(c1)OCO2)c1cccc(Nc2ccc(-c3ccccc3)nn2)c1` [Compound A64], at human ANO6 [1], the inhibition at 1 µM is 30 to 60% and the inhibition at 30 µM was not below 60%. In addition, on human ANO6 [2], the inhibition at 0.1 µM was less than 30% and the inhibition at 1 µM was less than 30%.
As for `O=C(NCCCc1ccccc1)c1cccc(Nc2ccc(-c3ccc(F)cc3)nn2)c1` [Compound A6], on human ANO6 [1], the inhibition at 1 µM was not below 60% and the inhibition at 30 µM was not below 60%. For the same compound, at human ANO6 [2], the inhibition at 0.1 µM was less than 30% and the inhibition at 1 µM is less than 30%.
As for `O=C(NC1CC1)c1cccc(Nc2ccc(-c3ccccc3)nn2)c1` [Compound 38, N-cyclopropyl-3-[(6-phenylpyridazin-3-yl)amino]benzamide], at human ANO6 [1], the inhibition at 1 µM was not below 60% and the inhibition at 30 µM was not below 60%. Besides, the inhibition at 1 µM at human ANO6 [2] is less than 30%.
With `O=C(Nc1cccc(F)c1)c1cccc(Nc2ncc(-c3ccccc3)cn2)c1` [Compound 116, N-(3-fluorophenyl)-3-[(5-phenylpyrimidin-2-yl)amino]benzamide], the inhibition at 1 µM at human ANO6 [1] was not below 60%. In addition, on human ANO6 [2], the inhibition at 0.1 µM is less than 30% and the inhibition at 1 µM is not below 60%.
`COc1cccc(CNC(=O)c2cccc(Nc3ccc(-c4ccccc4)nn3)c2)c1` [Compound A76]: on human ANO6 [1], the inhibition at 1 µM is not below 60% and the inhibition at 30 µM was not below 60%. At human ANO6 [2], the inhibition at 0.1 µM is less than 30% and the inhibition at 1 µM lay within 30 to 60%.
On to `Cc1ccc(CNC(=O)c2cccc(Nc3ncc(-c4ccccc4C(F)(F)F)cn3)c2)o1` [Compound 98, N-[(5-methylfuran-2-yl)methyl]-3-({5-[2-(trifluoromethyl)phenyl]pyrimidin-2-yl}amino)benzamide], for which the results for the inhibition at 1 µM on human ANO6 [1] and on human ANO6 [2] were not below 60% and 30 to 60%, respectively.
Take `O=C(NCc1ccc(F)cc1)c1cccc(Nc2ccc(-c3ccccc3)nn2)c1` [Compound A24]: the results for the inhibition at 1 µM at human ANO6 [1] and on human ANO6 [2] were not below 60% and 30 to 60%, respectively. Also, the inhibition at 30 µM at human ANO6 [1] was not below 60%.
Take `CCCCCCNC(=O)c1cccc(Nc2ccc(-c3ccccc3)nn2)c1` [Compound A37]: at human ANO6 [1], the inhibition at 1 µM is not below 60% and the inhibition at 30 µM was not below 60%. At human ANO6 [2], the inhibition at 0.1 µM lay in the range of 30 to 60% and the inhibition at 1 µM was not below 60%.

(Values after US20230080054A1 (ILDONG PHARMACEUTICAL CO., LTD., priority 2021, published 2023).)
